What was measured:
[1] = tested on: weaned pigs and growing swine; assay: Swine feeding test with feed additives; assay type: in vivo
Description: The composition of the invention was tested using weaned pigs and growing swine. The test comprised a total of 240 swine from 30 different litters. […] The composition of the invention was compared to a control without additives and to an antibiotic feed additive (Avilamycin) at the weaning and growth stage.

[2] = tested on: weaned pigs and swine grown for pork meat; settings: Partanen et al. 2002; cited from earlier work
[3] = tested on: slaughter animals; settings: Kirchgessner et al. 1995; cited from earlier work
[4] = Growth and final growth stage, additive in feed (6 g/kg for acids)
[5] = Weaning stage, additive in feed (8 g/kg for acids)

Molecule | Daily growth [1, 4] [g/day] | Final weight [1, 4] [kg] | Daily growth [1, 5] [g/day] | Final weight [1, 5] [kg] | growth promoter effect in feed [2] | increase in weight of slaughter animals [3]
avilamycin | 845 | 107.1 | 335 | 19.3 |  | 
O=CO [F, formic acid] | 869 | 106.0 | 308 | 18.5 | acts as a growth promoter | 
C/C=C/C=C/C(=O)O [sorbic acid] |  |  |  |  |  | enhanced

Reference: US20060100284A1, “Growth promotor” (priority 2002, published 2006)
